Data taken from patent publication US11485720B2, “Anti-infective agents” (University of Dundee, priority 2016, dated 2022).

Biological target: T1, Plasmodium falciparum lysyl t-RNA synthetase (Pf-KRS1) (Plasmodium falciparum, UniProt Q8IDJ8)
T1 construct: Pf KRS1-; made in house; host or cells: E. coli BL21 (DE3)
Assay: Pf-KRS1 inhibition biochemical assay (Kinase-Glo, ATP depletion)
Conditions: read-out: Pf-KRS pIC50 (converted)
Procedure, shortened: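 Recombinant Pf-KRS1 (75 nM working concentration) in HEPES/KOH/MgCl2/KCl buffer with 3 μM ATP, 60 μM L-lysine, 0.4 mg/ml yeast tRNA and pyrophosphatase; compounds at 50 μM–2.5 nM final. Reaction ran 5 h at room temperature, then remaining ATP was read by Kinase-Glo luminescence. IC50 came from nonlinear fits of % inhibition against controls.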

T1 sequence (Q8IDJ8 entry or part of it, looked up, natural form): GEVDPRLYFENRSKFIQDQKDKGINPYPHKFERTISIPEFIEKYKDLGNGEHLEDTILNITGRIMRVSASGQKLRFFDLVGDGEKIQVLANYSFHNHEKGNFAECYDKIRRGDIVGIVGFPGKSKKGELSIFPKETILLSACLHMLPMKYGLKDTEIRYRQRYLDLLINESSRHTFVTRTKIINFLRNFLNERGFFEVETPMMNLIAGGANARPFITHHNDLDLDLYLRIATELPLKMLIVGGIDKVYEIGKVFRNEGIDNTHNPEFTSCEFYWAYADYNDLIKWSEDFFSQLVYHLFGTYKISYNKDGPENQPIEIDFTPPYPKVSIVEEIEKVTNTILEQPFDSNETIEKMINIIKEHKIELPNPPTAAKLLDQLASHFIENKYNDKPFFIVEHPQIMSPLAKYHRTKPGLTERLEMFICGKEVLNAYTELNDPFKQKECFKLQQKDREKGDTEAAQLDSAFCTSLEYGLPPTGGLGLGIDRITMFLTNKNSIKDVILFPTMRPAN

`O=C(NCC1CCCCC1)c1cc(=O)c2cc(F)cc(O)c2o1` [Example 70, N-(cyclohexylmethyl)-6-fluoro-8-hydroxy-4-oxo-4H-chromene-2-carboxamide] was tested. Which IC50 did it give?
The IC50 was 50.1 nM.
